From publication PMC8309005, “Novel Non-Congeneric Derivatives of the Choline Kinase Alpha Inhibitor ICL-CCIC-0019” (Pharmaceutics, 2021)

What was measured:
[1] = tested on: C4-2B prostate cancer cells; assay: Cellular uptake and metabolism study in C4-2B with or without serum (HPLC); settings: 50 μM, 4 h
Experimental: Cell lysate sample preparation: C4-2B prostate cancer cells were seeded into cell culture dishes (150 × 25 mm) at a density of 7 × 10^6 per dish. The cells were allowed to settle and grow for another 48 h. The cells were treated with ICL-CCIC-0019, CK146, CK147 and CK148 (50 μM of 7 mL RPMI medium with or without 10% FCS) for 4 h in the incubator. After 4-h incubation, the aliquots of medium were collected (see the medium sample preparation section). Cells were scraped, washed with ice-cold PBS three times and collected by centrifugation (4 °C, 4000× g). The cell pellets were resuspended in 500 μL of chilled acetonitrile:PBS (50:50, v/v) for cell disruption and homogenization. The cell disruption was performed by a Precellys® 24 homogenizer (Bertin Technologies, Montigny-le-Bretonneux, France) at 4 °C. After acetonitrile evaporation at room temperature, 50 μL of cell lysis was taken for protein analysis. Another 100 μL of the supernatant obtained after centrifuge (4 °C, 15,000× g) was resuspended in 100 μL formic acid:water (0.2%, v/v). Next, 100 μL of the filtered solution was analyzed by HPLC system described in Supplementary HPLC method D. Three injections were performed for each sample. Intracellular drug was normalized to cellular protein of each plate using BCA assay. Medium sample preparation for HPLC analysis: 250-μL aliquots of medium (with or without 10% FCS) were transferred into 1.5-mL tube containing 250 μL acetonitrile. After a brief vortex, the tube was placed at 4 °C for 30 min for protein precipitation. One hundred microliters of the resulting supernatant from centrifuge (4 °C, 15,000× g) were resuspended in 100 μL formic acid: water (0.2%, v/v). One hundred microliters of the filtered sample were analyzed by HPLC system described in Supplementary HPLC method D. Three injections were performed for each sample.

CHKA = tested on: CHKA; design: method as in ref 18, 25 (HC-3), 20, 21 (MN58B), 23 (RSM-932A); settings: CHKA inhibitors of Figure 1; 25 (HC-3), 20, 21 (MN58B), 23 (RSM-932A); cited from earlier work
NIH3T3 = tested on: NIH3T3; design: method as in PMID 22278967, PMID 9393874; settings: cited from earlier work
SKBR3 = tested on: SKBR3; design: method as in PMID 22278967, PMID 9393874; settings: cited from earlier work

Row | SMILES | cellular uptake, mean ± SD of two experiment groups ([1]; FCS positive and negative groups) [% μg^−1 protein] | detection in cell lysates by HPLC (in words) ([1]; both FCS groups) | IC50 (CHKA) [nM] | GI50 (NIH3T3) [µM] | GI50 (SKBR3) [µM]
1 | CN(C)c1cc[n+](CCCCCCCCCCCCCC[n+]2ccc(N3CCN(C(=O)CSC4CC(=O)N(CCC(=O)NCCCCCC(=O)NCCCCC(NC(=O)NC(CCC(=O)OC(C)(C)C)C(=O)OC(C)(C)C)C(=O)OC(C)(C)C)C4=O)CC3)cc2)cc1 (centres unmarked) [CK148] | 42.5 ± 11.5 | detected |  |  | 
2 | C[N+]1(C)CCOC(O)(c2ccc(-c3ccc(C4(O)C[N+](C)(C)CCO4)cc3)cc2)C1 (centres unmarked) [HC-3, Hemicholinium-3] |  |  | 950 | 600 | > 500
